{"source": "patent US20250214951A1", "about": "“3-PHENYLISOXAZOLE DERIVATIVE, AND PHARMACEUTICAL COMPOSITION FOR PREVENTING OR TREATING EYE DISEASE, CONTAINING SAME AS ACTIVE INGREDIENT” (VASTHERA CO., LTD., priority 2022, published 2025)", "type_in_all_cases": "cell-based, human", "key": {"[1]": {"test_system": "LC3-II", "test": "Autophagy activation in ARPE-19 (LC3-II Western, GFP-LC3 puncta)", "conditions": "12 h", "description": "ARPE-19 was dispensed into a 6-well plate at a concentration of 1×10^5 cells/well and cultured for 24 hours. Then, cells were treated with example 17 compound of the present invention at concentrations of 10, 25, and 50 μM for 12 hours. Then, a cell lysis buffer containing a protease inhibitor was added to prepare a cell lysate. The LC3-II level was measured by Western immunoblotting using an anti-LC3-II antibody (Cell Signaling Technology, MA, USA). As an internal control, an antibody against β-actin (Cell Signaling Technology) was used and measured by Western immunoblotting in the same manner as above, and is shown in FIG. 6 (upper graph).\nMeanwhile, intracellular autophagosome formation was observed as follows. The ARPE-19 cells were transfected with a plasmid expressing GFP-LC3 (Addgene Inc., MA, USA) using Lipofectamine™ 2000 reagent (Invitrogen, Carlsbad, CA, USA). After 48 hours of culture, the cells were treated with example 17 compound of the present invention at a concentration of 25 μM. After additional 12 hours of culture, the cells were fixed using 4% paraformaldehyde for 10 minutes. The cells were then washed three times with PBS every 5 minutes. Finally, the puncta formation of GFP-LC3 was observed using a confocal laser scanning microscope (Nikon, Tokyo, Japan). […]"}, "[2]": {"test_system": "A2E-BDP in ARPE-19 cells", "test": "Removal of A2E-BDP by concentration, fluorescence and phase contrast microscopy", "description": "ARPE-19 cell line was dispensed into a 24-well plate at a concentration of 4×10^4 cells/well and cultured for 24 hours. In order to induce A2E-BDP accumulation in ARPE-19 cell line, the cells were treated with […] of 10 μM for 24 hours. The A2E-BDP-containing ARPE-19 cells were treated with compound 17 (10, 25, 50 μM) for 24 hours. The level of A2E-BDP in each cell was measured as a fluorescence image at 510 nm using a Nikon Eclipse Ti—U fluorescence microscope (Tokyo, Japan). In addition, the change in cell number according to compound treatment was observed using a general phase contrast microscope, and the results are shown in FIG. 1. Meanwhile, lutein was used as a control substance."}, "[3]": {"test_system": "LC3-II (autophagy flux)", "test": "Autophagy flux in A2E-accumulated ARPE-19 with or without bafilomycin", "conditions": "A2E 25 μM 24 h; 10, 25, 50 μM, 12 h; bafilomycin 2 nM 4 h; FIG. 9", "description": "It was measured whether example 17 compound of the present invention increases autophagy flux in the ARPE-19 cell line in which A2E is accumulated. That is, the ARPE-19 cell line was dispensed into a 6-well plate at a concentration of 1×10^5 cells/well and cultured for 24 hours. The cells were treated with A2E at a concentration of 25 μM for 24 hours. The cells were treated with example 17 compound of the present invention at concentrations of 10, 25, and 50 μM for 12 hours each. The method of treating with bafilomycin (2 nM for 4 hours), preparing cell lysate, and measuring LC3-II by Western method was the same as in Experimental Example 8."}, "[4]": {"test_system": "p62 protein phosphorylated at serine 349 (p-p62 (S349))", "test": "Autophagy activation by increase of p-p62 (S349), Western immunoblotting", "conditions": "indicated concentrations; FIG. 14", "description": "The cells were treated with the test compounds at the indicated concentrations, and the autophagy activation effect through the increase of p62 protein (p-p62 (S349)) phosphorylated at serine 349 residue was measured by Western immunoblotting using an anti-p-p62 antibody, and the results are shown in FIG. 14. The increase in the intracellular P-p62 ([…]) level is one of the major indicators of autophagy activation."}, "[5]": {"test_system": "LC3-II", "test": "Autophagy activation in A2E-accumulated ARPE-19 (LC3-II Western)", "conditions": "25, 50, 100 μM, 12 h; FIG. 8", "description": "A2E is known to inhibit intracellular autophagy. Therefore, it was measured whether example 17 compound of the present invention also increases autophagy in ARPE-19 cell lines accumulating A2E.\nSpecifically, ARPE-19 cell lines were dispensed into 6-well plates at a concentration of 1×10^5 cells/well and cultured for 24 hours. The cells were treated with A2E at a concentration of […] for 24 hours. Thereafter, the cells were treated with example 17 compound of the present invention at concentrations of 25, 50, and 100 μM for 12 hours each. Thereafter, cell lysate preparation and measurement of LC3-II by Western immunoblotting were performed in the same manner as in Experimental Example 7, and the results are shown in FIG. 8."}}, "data": [{"molecule": "C=CCOCc1cc(-c2cc(CC=C)ccc2OC)no1", "note": "[Example 17, 3-(5-allyl-2-methoxyphenyl)-5-((allyloxy)methyl)isoxazole]", "values": [{"measurement": "LC3-II level (Western immunoblotting)", "setting": "[1]; ARPE-19, 10, 25, 50 μM, FIG. 6 graph", "result": "an increase in LC3-II"}, {"measurement": "puncta formation of GFP-LC3 (confocal microscope)", "setting": "[1]; GFP-LC3 transfected ARPE-19, 25 μM, FIG. 6 photograph", "result": "intracellular LC3-II puncta were observed"}, {"measurement": "cytotoxicity against ARPE-19 cells (cell number, phase contrast microscope)", "setting": "[2]; 10, 25, 50 μM, 24 h", "result": "no cytotoxicity"}, {"measurement": "A2E-BDP fluorescence intensity (fluorescence microscope)", "setting": "[2]; ARPE-19 with A2E-BDP, 10, 25, 50 μM, 24 h, FIG. 1", "result": "a decrease in fluorescence intensity was observed in a concentration-dependent manner"}, {"measurement": "A2E-BDP removal ability compared with lutein", "setting": "[2]; FIG. 1", "result": "better A2E-BDP removal ability than lutein"}, {"measurement": "autophagy flux in A2E-accumulated ARPE-19", "setting": "[3]", "result": "significantly increased the autophagy flux"}, {"measurement": "autophagy activation through increase of p-p62 (S349)", "setting": "[4]", "result": "activated autophagy in a concentration-dependent manner"}, {"measurement": "LC3-II level in A2E-accumulated ARPE-19", "setting": "[5]", "result": "an increase in LC3-II"}]}]}
